# Data published in paper PMC8097421 (Antimicrobial Agents and Chemotherapy, 2021).
# Marks after values point to notes of the source that are not given here.
# Assays:
# [1] = Clinical observation of nonhuman primates in the PK study; type: in vivo, cynomolgus monkey; conditions: NHP, oral AT-527 60 mg/kg loading then 30 mg/kg every 12 h
# [2] = Estimated oral bioavailability; conditions: in vivo, species and source not stated
# [3] = set-up: method as in doi:10.1016/S0168-8278(20)31210-1; conditions: HCV-infected subjects, daily oral 550 mg with daclatasvir for up to 12 weeks; cited from earlier work
# [4] = tested on: MRC-5 (human lung fibroblast) cells; conditions: 8 h, 10 µM
# [5] = tested on: Huh-7 cells; conditions: human, 8 h, 10 µM
# [6] = tested on: human bronchial epithelial (HBE) cells; conditions: 10 µM
# [7] = male, cynomolgus monkey, in vivo
# [8] = tested on: NiRAN domain of nsp12; set-up: method as in our unpublished data; conditions: ref our unpublished data; cited from earlier work
# [9] = in vivo; conditions: male, cynomolgus monkey; for half-life: po, 30 mg/kg
# [10] = in vitro; conditions: human, intracellular half-life (t1/2) of AT-9010
# [11] = in vitro; conditions: human, intracellular half-life (t1/2) of AT-9010; remark: listed apart in the source
# [12] = tested on: primary human hepatocytes; conditions: cited from earlier work
# [13] = tested on: primary NHP hepatocytes; conditions: cited from earlier work
# [14] = tested on: HCoV-229E; assay: CPE assay, HCoV-229E in BHK-21 cells; type: cell-based, HCoV-229E (Alphacoronavirus); conditions: Human coronavirus 229E, 72 h, 3-day incubation, MOI 0.01
# Method: (§1) To assess whether AT-511, a 2′-fluoro-2′-methyl guanosine nucleotide prodrug (Fig. 1), had antiviral activity against a seasonal human alpha coronavirus, HCoV-229E, BHK-21 (baby hamster kidney) cells were acutely infected with the virus and exposed to serial dilutions of the drug. […] Half-maximal cytotoxicity (CC50) measured by neutral red staining of compound-treated cells in the absence of virus indicated little to no toxicity was detected from either drug up to 100 μM.
# (§2) AT-511 and sofosbuvir were dissolved in DMSO at 100 mM and then diluted in growth medium to final concentrations of 100, 20, 4, and 0.8 μM (two […] replicate plates each). After BHK-21 cells were grown to confluence in 96-well plates, growth medium was replaced with fresh maintenance medium (growth medium with 1% inactivated FBS in place of 10% FBS) containing serially diluted test compound and HCoV-229E at a multiplicity of infection (MOI) of 0.01. Uninfected cells in the presence of serially diluted compound were used to assess the cytotoxicity of compounds. After a 3-day incubation at 37°C in a humidified 5% CO2 atmosphere, cell viability was determined by the 3-(4,5-dimethyl-2-thiazolyl)-2,5-diphenyl-2H-tetrazolium bromide (MTT) method ([22]). […]
# [15] = Cytotoxicity in uninfected BHK-21 cells; type: cell-based; conditions: hamster, 3-day incubation, read-out: CPE assay CC50
# Method: as §1, §2
# [16] = human, in vivo
# [17] = in vivo; conditions: male, cynomolgus, cynomolgus monkey, po, 30 mg/kg
# [18] = clinical; conditions: human, in vivo
# [19] = tested on: SARS-CoV-2 (USA-WA1/2020); assay: microbe, parasite or virus in culture; type: cell-based, SARS-CoV-2 (Betacoronavirus); conditions: SARS-CoV-2, HAE cells
# [20] = in vitro; conditions: human
# [21] = Steady-state plasma pharmacokinetics in nonhuman primates after oral AT-527; conditions: NHP plasma, oral AT-527 60 mg/kg loading then 30 mg/kg every 12 h
structure (smiles),measurement,setting,value
CNc1nc(N)nc2c1ncn2C1OC(COP(=O)(NC(C)C(=O)OC(C)C)Oc2ccccc2)C(O)C1(C)F (stereo not shown) [AT-527],unusual or adverse clinical signs,[1],no such signs noted
same,bioavailability,[2],≥ 50%
same,safety and tolerability,[3],safe and well tolerated
C[C@@]1(F)[C@H](O)[C@@H](COP(=O)(O)OP(=O)(O)OP(=O)(O)O)O[C@H]1n1cnc2c(=O)[nH]c(N)nc21 [AT-9010],AT-9010 formed,[4],26.5 ± 0.5 pmol/10^6 cells
same,AT-9010 formed,[5],182 ± 6 pmol/10^6 cells
same,"in vitro t1/2 of the TP, fold longer than in hepatocytes",[6],4
same,AT-9010 lung-to-liver concentration ratio,[7]; 12 h,1.6
same,AT-9010 in liver samples at 48-h postdose,[7]; 48 h,no peak corresponding to AT-9010 was detected
same,inhibition of NiRAN,[8],potent inhibitor
same,concentration at 12 h,[9]; AT-9010 concentration in kidney,130 ± 40 nM
same,concentration at 12 h,[9]; AT-9010 concentration in liver tissue,90 ± 30 nM
same,concentration at 12 h,[9]; AT-9010 concentration in lung tissue,140 ± 110 nM
same,half-life,[9]; estimated half-life of AT-9010 in kidney tissue,8.5 h
same,half-life,[9]; estimated half-life of AT-9010 in lung tissue,9.4 h
same,half-life at 10 µM,[10],38 to 39 h
same,half-life at 10 µM,[11],38 to 39 h
same,in vitro t1/2 of AT-9010,[12],10 h
same,in vitro t1/2 of AT-9010,[13],10 h
CC(C)OC(=O)[C@H](C)N[P@](=O)(OC[C@H]1O[C@@H](n2ccc(=O)[nH]c2=O)[C@](C)(F)[C@@H]1O)Oc1ccccc1 [Sofosbuvir],EC50,[14],> 100 µM
same,CC50 at 3 days,[15],> 100 µM
C[C@@]1(F)[C@H](O)[C@@H](CO)O[C@H]1n1cnc2c(=O)[nH]c(N)nc21 [AT-273],"absorption constant (Ka), population estimate",[16],0.45 (±0.00253) h^−1
same,"volume of central compartment (V1), population estimate",[16],"2,070 (±146) liters"
same,"volume of peripheral compartment (V2), population estimate",[16],"1,270 (±164) liters"
same,AUC(0-t),[17],1.56 ± 0.18 µM·h
same,half-life,[17],16 h
same,clearance,[18],3130 mL/min
CC(C)C(=O)OC[C@H]1O[C@@H](n2ccc(NO)nc2=O)[C@H](O)[C@@H]1O [Molnupiravir],Selectivity index (CC50/EC90),[19]; CC50/EC90,>4.9^c
same,EC90,"[19]; Severe acute respiratory syndrome coronavirus 2, 120 h, 5-day incubation, read-out: VYR assay EC90",2.8 ± 1 µM
same,CC50 at 5 days,[20],> 19 µM
CNc1nc(N)nc2c1ncn2[C@@H]1O[C@H](CO[P@](=O)(O)N[C@@H](C)C(=O)O)[C@@H](O)[C@@]1(C)F [AT-551],Tmax,[17],1 to 4 h
same,AUC0–12,[21],4.35 ± 1.77 µM·h
